Measured values taken from patent publication US10035804B2, “Spirodiamine derivatives as aldosterone synthase inhibitors” (Hoffmann-La Roche Inc., priority 2014, dated 2018).
pEC50: −log10 of the molar value.

Legend:
human CYP11B1 = human CYP11B1 (Homo sapiens (Human), UniProt P15538); assay: G-402 cellular enzyme assay, human CYP11B1 (cortisol release); type: cell-based; conditions: G-402 cells expressing human CYP11B1; 1 μM Deoxycortisol; cortisol in supernatant after 16 h
Source text: (§1) Herein we identified the use of the G-402 cell line as a host cell to ectopically express (transiently or stably) enzymes of the CYP11 family. Specifically we developed stable G-402 cells expressing ectopically human CYP11B1, human CYP11B2, human CYP11A1, cynmolgus CYP11B1 or cynomolgus CYP11B2 enzyme activity. Importantly the identified cell line G-402 expresses co-factors (adrenodoxin and adrenodoxin reductase) important for the activity of the CYP11 family and no relevant enzyme activity of the CYP11 family (in comparison to H295R cells) was detected in these cells. Therefore the G-402 cell line is uniquely suited as a host cell for the ectopic expression of enzymes from the CYP11 family.
(§2) G-402 cells can be obtained from ATCC (CRL-1440) and were originally derived from a renal leiomyoblastoma.
(§3) The expression plasmids contains the ORF for either human/cyno CYP11B1 or CYP11B2 under the control of a suitable promoter (CMV-promoter) and a suitable resistance marker (neomycin). Using standard techniques the expression plasmid is transfected into G-402 cells and these cells are then selected for expressing the given resistance markers. Individual cell-clones are then selected and assessed for displaying the desired enzymatic activity using 11-Deoxycorticosterone (Cyp11B2) or 11-Deoxycortisol (Cyp11B1) as a substrate.
(§4) G-402 cells expressing CYP11 constructs were established as described above and maintained in McCoy's 5a Medium Modified, ATCC Catalog No. 30-2007 containing 10% FCS and 400 μg/ml G418 (Geneticin) at 37° C. under an atmosphere of 5% CO2/95% air. Cellular enzyme assays were performed in DMEM/F12 medium containing 2.5% charcoal treated FCS and appropriate concentration of substrate (0.3-10 uM 11-Deoxycorticosterone, 11-Deoxycortisol or Corticosterone). For assaying enzymatic activity, cells were plated onto 96 well plates and incubated for 16 h. An aliquot of the supernatant is then transferred and analyzed for the concentration of the expected product (Aldosterone for CYP11B2; Cortisol for CYP11B1). The concentrations of these steroids can be determined using HTRF assays from CisBio analyzing either Aldosterone or Cortisol.
(§5) Inhibition of the release of produced steroids can be used as a measure of the respective enzyme inhibition by test compounds added during the cellular enzyme assay. The dose dependent inhibition of enzymatic activity by a compound is calculated by means of plotting added inhibitor concentrations (x-axes) vs. measured steroid/product level (y-axes). The inhibition is then calculated by fitting the following 4-parameter sigmoidal function (Morgan-Mercer-Flodin (MMF) model) to the raw data points using the least squares method:
(§6) [formula] wherein, A is the maximum y value, B is the EC50 factor determined using XLFit, C is the minimum y value and D is the slope value.
(§7) EC50 values for compounds claimed herein were tested with the G402-based assay system described. Cyp11B2 enzyme activity was tested in presence of 1 μM Deoxycorticosterone and variable amounts of inhibitors; Cyp11B1 enzyme activity was tested in presence of 1 μM Deoxycortisol and variable amounts of inhibitors.

human CYP11B2 = human CYP11B2 (Homo sapiens (Human), UniProt P19099); assay: G-402 cellular enzyme assay, human CYP11B2 (aldosterone release); type: cell-based; conditions: G-402 cells expressing human CYP11B2; 1 μM Deoxycorticosterone; aldosterone in supernatant after 16 h
Chain of human CYP11B2 (P19099 25-503): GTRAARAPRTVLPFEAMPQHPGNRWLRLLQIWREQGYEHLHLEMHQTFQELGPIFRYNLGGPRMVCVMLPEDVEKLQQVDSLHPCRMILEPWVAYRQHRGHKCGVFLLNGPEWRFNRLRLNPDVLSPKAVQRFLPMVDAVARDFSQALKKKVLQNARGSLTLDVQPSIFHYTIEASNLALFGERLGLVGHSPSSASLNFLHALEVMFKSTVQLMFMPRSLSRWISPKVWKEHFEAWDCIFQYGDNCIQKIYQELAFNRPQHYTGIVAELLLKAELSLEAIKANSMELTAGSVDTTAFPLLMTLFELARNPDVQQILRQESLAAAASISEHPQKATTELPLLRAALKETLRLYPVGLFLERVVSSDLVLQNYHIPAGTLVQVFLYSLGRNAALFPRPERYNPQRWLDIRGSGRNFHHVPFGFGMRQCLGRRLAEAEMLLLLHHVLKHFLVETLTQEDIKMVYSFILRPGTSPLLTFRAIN
Source text: as §1, §2, §3, §4, §5, §6, §7

Chain of human CYP11B1 (P15538 25-503): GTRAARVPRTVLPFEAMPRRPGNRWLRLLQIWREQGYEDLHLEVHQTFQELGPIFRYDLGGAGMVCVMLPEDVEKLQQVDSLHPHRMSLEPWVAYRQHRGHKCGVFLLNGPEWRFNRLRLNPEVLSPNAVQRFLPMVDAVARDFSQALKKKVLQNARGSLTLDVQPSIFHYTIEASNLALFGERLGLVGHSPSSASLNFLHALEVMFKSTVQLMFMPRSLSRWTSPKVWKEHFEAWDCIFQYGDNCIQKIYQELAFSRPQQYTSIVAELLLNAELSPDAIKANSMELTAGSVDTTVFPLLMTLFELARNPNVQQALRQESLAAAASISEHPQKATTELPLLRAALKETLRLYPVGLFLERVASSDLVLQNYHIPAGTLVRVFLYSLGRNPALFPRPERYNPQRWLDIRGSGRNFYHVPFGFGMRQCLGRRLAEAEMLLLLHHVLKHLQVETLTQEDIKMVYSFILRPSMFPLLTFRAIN

Row | SMILES | pEC50 (human CYP11B1) | pEC50 (human CYP11B2)
1 | Cc1cnc(C(=O)N2CC3(C2)CN(c2cncc(N4C(=O)c5ccc(Cl)cc5C4(C)C)c2)C3)cn1 [Example 30, 5-Chloro-3,3-dimethyl-2-[5-[2-(5-methylpyrazine-2-carbonyl)-2,6-diazaspiro[3.3]heptan-6-yl]-3-pyridyl]isoindolin-1-one] | 8.43 | 10.34
2 | CC1(C)c2cc(Cl)ccc2C(=O)N1c1cncc(N2CC3(CN(C(=O)c4cnccn4)C3)C2)c1 [Example 38, 5-Chloro-3,3-dimethyl-2-[5-[2-(pyrazine-2-carbonyl)-2,6-diazaspiro[3.3]heptan-6-yl]-3-pyridyl]isoindolin-1-one] | 8.64 | 10.57
3 | CC1(C)c2cc(Cl)ccc2C(=O)N1c1cncc(N2CC3(CN(C(=O)c4ncccn4)C3)C2)c1 [Example 33, 5-Chloro-3,3-dimethyl-2-[5-[2-(pyrimidine-2-carbonyl)-2,6-diazaspiro[3.3]heptan-6-yl]-3-pyridyl]isoindolin-1-one] | 8.76 | 10.30
4 | Cn1cc(C(=O)N2CC3(CCN(c4cncc(N5C(=O)c6ccc(Cl)cc6C5(C)C)c4)CC3)C2)cn1 [Example 59, 5-Chloro-3,3-dimethyl-2-[5-[2-(1-methylpyrazole-4-carbonyl)-2,7-diazaspiro[3.5]nonan-7-yl]-3-pyridyl]isoindolin-1-one] | 9.09 | –
5 | Cc1ncc(C(=O)N2CC3(C2)CN(c2cncc(N4C(=O)c5ccc(Cl)cc5C4(C)C)c2)C3)o1 [Example 43, 5-Chloro-3,3-dimethyl-2-[5-[2-(2-methyloxazole-5-carbonyl)-2,6-diazaspiro[3.3]heptan-6-yl]-3-pyridyl]isoindolin-1-one] | 7.74 | 10.74
6 | CCn1cc(C(=O)N2CC3(C2)CN(c2cncc(N4C(=O)c5ccc(C#N)cc5C4(C)C)c2)C3)cn1 [Example 9, 2-[5-[2-(1-Ethylpyrazole-4-carbonyl)-2,6-diazaspiro[3.3]heptan-6-yl]-3-pyridyl]-3,3-dimethyl-1-oxo-isoindoline-5-carbonitrile] | 7.61 | 11.05
7 | Cc1ccnc(C)c1C(=O)N1CC2(C1)CN(c1cncc(N3C(=O)c4ccc(Cl)cc4C3(C)C)c1)C2 [Example 49, 5-Chloro-2-[5-[2-(2,4-dimethylpyridine-3-carbonyl)-2,6-diazaspiro[3.3]heptan-6-yl]-3-pyridyl]-3,3-dimethyl-isoindolin-1-one] | 8.29 | 9.96
8 | Cc1nc(C)c(C(=O)N2CC3(C2)CN(c2cncc(N4C(=O)c5ccc(Cl)cc5C4(C)C)c2)C3)o1 [Example 44, 5-Chloro-2-[5-[2-(2,4-dimethyloxazole-5-carbonyl)-2,6-diazaspiro[3.3]heptan-6-yl]-3-pyridyl]-3,3-dimethyl-isoindolin-1-one] | 7.75 | 10.04
9 | Cn1ccnc1C(=O)N1CC2(C1)CN(c1cncc(N3C(=O)c4ccc(Cl)cc4C3(C)C)c1)C2 [Example 4, 5-Chloro-3,3-dimethyl-2-[5-[2-(1-methylimidazole-2-carbonyl)-2,6-diazaspiro[3.3]heptan-6-yl]-3-pyridyl]isoindolin-1-one] | 8.96 | 11.00
10 | Cn1cncc1C(=O)N1CC2(C1)CN(c1cncc(N3C(=O)c4ccc(C#N)cc4C3(C)C)c1)C2 [Example 13, 3,3-Dimethyl-2-[5-[2-(3-methylimidazole-4-carbonyl)-2,6-diazaspiro[3.3]heptan-6-yl]-3-pyridyl]-1-oxo-isoindoline-5-carbonitrile] | 7.58 | 10.56
11 | Cc1ncoc1C(=O)N1CC2(C1)CN(c1cncc(N3C(=O)c4ccc(Cl)cc4C3(C)C)c1)C2 [Example 41, 5-Chloro-3,3-dimethyl-2-[5-[2-(4-methyloxazole-5-carbonyl)-2,6-diazaspiro[3.3]heptan-6-yl]-3-pyridyl]isoindolin-1-one] | 7.55 | 9.96
12 | Cc1ncnc(C)c1C(=O)N1CC2(C1)CN(c1cncc(N3C(=O)c4ccc(Cl)cc4C3(C)C)c1)C2 [Example 48, 5-Chloro-2-[5-[2-(4,6-dimethylpyrimidine-5-carbonyl)-2,6-diazaspiro[3.3]heptan-6-yl]-3-pyridyl]-3,3-dimethyl-isoindolin-1-one] | < 7.52 | 9.62
13 | Cn1cc(C(=O)N2CC3(C2)CN(c2cncc(N4C(=O)c5ccc(Cl)cc5C45CC5)c2)C3)cn1 [Example 19, 5′-Chloro-2′-[5-[2-(1-methylpyrazole-4-carbonyl)-2,6-diazaspiro[3.3]heptan-6-yl]-3-pyridyl]spiro[cyclopropane-1,3′-isoindoline]-1′-one] | 8.11 | 11.54
14 | Cc1ncc(Cl)c(C(=O)N2CC3(C2)CN(c2cncc(N4C(=O)c5ccc(Cl)cc5C4(C)C)c2)C3)n1 [Example 47, 5-Chloro-2-[5-[2-(5-chloro-2-methyl-pyrimidine-4-carbonyl)-2,6-diazaspiro[3.3]heptan-6-yl]-3-pyridyl]-3,3-dimethyl-isoindolin-1-one] | 8.08 | 9.30
15 | CCn1cc(C(=O)N2CCC3(CC2)CN(c2cncc(N4C(=O)c5ccc(Cl)cc5C4(C)C)c2)C3)cn1 [Example 58, 5-Chloro-2-[5-[7-(1-ethylpyrazole-4-carbonyl)-2,7-diazaspiro[3.5]nonan-2-yl]-3-pyridyl]-3,3-dimethyl-isoindolin-1-one] | 8.02 | –
16 | CC1(C)c2cc(Cl)ccc2C(=O)N1c1cncc(N2CC3(CN(C(=O)c4cocn4)C3)C2)c1 [Example 42, 5-Chloro-3,3-dimethyl-2-[5-[2-(oxazole-4-carbonyl)-2,6-diazaspiro[3.3]heptan-6-yl]-3-pyridyl]isoindolin-1-one] | 8.98 | 10.99
17 | COc1ccc2c(n1)C(C)(C)N(c1cncc(N3CC4(CN(C(=O)c5cnccc5C)C4)C3)c1)C2=O [Example 16, 2-Methoxy-7,7-dimethyl-6-[5-[2-(4-methylpyridine-3-carbonyl)-2,6-diazaspiro[3.3]heptan-6-yl]-3-pyridyl]pyrrolo[3,4-b]pyridin-5-one] | 7.53 | 10.08
18 | COc1ccc2c(n1)C(C)(C)N(c1cncc(N3CC4(CN(C(=O)c5ccnn5C)C4)C3)c1)C2=O [Example 17, 2-Methoxy-7,7-dimethyl-6-[5-[2-(2-methylpyrazole-3-carbonyl)-2,6-diazaspiro[3.3]heptan-6-yl]-3-pyridyl]pyrrolo[3,4-b]pyridin-5-one] | 7.48 | 9.05
19 | Cc1nc(C(=O)N2CC3(C2)CN(c2cncc(N4C(=O)c5ccc(Cl)cc5C4(C)C)c2)C3)co1 [Example 45, 5-Chloro-3,3-dimethyl-2-[5-[2-(2-methyloxazole-4-carbonyl)-2,6-diazaspiro[3.3]heptan-6-yl]-3-pyridyl]isoindolin-1-one] | 8.68 | 10.17
20 | Cc1ocnc1C(=O)N1CC2(C1)CN(c1cncc(N3C(=O)c4ccc(Cl)cc4C3(C)C)c1)C2 [Example 32, 5-Chloro-3,3-dimethyl-2-[5-[2-(5-methyloxazole-4-carbonyl)-2,6-diazaspiro[3.3]heptan-6-yl]-3-pyridyl]isoindolin-1-one] | 8.27 | 10.83
21 | Cc1ccncc1C(=O)N1CC2(CCN(c3cncc(N4C(=O)c5ccc(Cl)cc5C4(C)C)c3)CC2)C1 [Example 61, 5-Chloro-3,3-dimethyl-2-[5-[2-(4-methylpyridine-3-carbonyl)-2,7-diazaspiro[3.5]nonan-7-yl]-3-pyridyl]isoindolin-1-one] | 8.68 | –
22 | Cn1cc(C(=O)N2CCC3(CC2)CN(c2cncc(N4C(=O)c5ccc(Cl)cc5C4(C)C)c2)C3)cn1 [Example 56, 5-Chloro-3,3-dimethyl-2-[5-[7-(1-methylpyrazole-4-carbonyl)-2,7-diazaspiro[3.5]nonan-2-yl]-3-pyridyl]isoindolin-1-one] | 7.73 | –
23 | CCn1cc(C(=O)N2CC3(CCN(c4cncc(N5C(=O)c6ccc(Cl)cc6C5(C)C)c4)CC3)C2)cn1 [Example 60, 5-Chloro-2-[5-[2-(1-ethylpyrazole-4-carbonyl)-2,7-diazaspiro[3.5]nonan-7-yl]-3-pyridyl]-3,3-dimethyl-isoindolin-1-one] | 9.05 | –
